The source of these data is paper PMC11984905, “Chiral Switch of Gadopiclenol: New Standards in MRI Probes” (Advanced Science, 2025).

The nature of data set [1]: Stability, protonation and conditional stability constants (pGd) of Gd(III)-complexes (out-of-cell pH-potentiometry, 1H NMR relaxometry, competition with AAZTA). Format: physicochemical. The following applies: for conditional stability higher than that of the racemic counterparts: logK^c GdL and pGd; for conditional stability higher than that of the racemic counterparts / pGd / logK^cGdL and pGd higher than that of the parent [Gd(PCTA)]: pH 7.4; for logK^c GdL: conditional stability constant at pH 7.4; for *logKGd(H2L): diprotonated out-of-cage intermediate; for pGd: pGd = -log[Gd^3+]free, [Gd^3+]tot = 1 µM, [L]tot = 10 µM; for stability constant of Gd(III)-complex higher than that of the racemic complex: vs [Gd(rac-L1)]3- and [Gd(rac-L2)]; for logKGdLH-1: deprotonation of inner-sphere water. As to the method: (§1) The protonation constants of ligands, the stability and protonation constants of Ca(II)‐ and Zn(II)‐complexes formed with rac‐L1, ent‐L1, rac‐L2, and ent‐L2 ligands were determined by pH‐potentiometric titration. The metal‐to‐ligand concentration ratio was 1:1 (the concentration of the ligand was generally 0.002 M). The protonation constants of the Cu(II)‐ and Gd(III)‐complexes were determined using pH‐potentiometry by titrating the pre‐prepared complexes from pH 2.0 to 12.0 with 0.2 M NaOH. The stability constants of the Gd(III)‐complexes with rac‐L1 and ent‐L1 ligands were determined by the “out‐of‐cell” technique because of their slow formation reaction. The pH range of the complexation equilibria and the time needed to reach the equilibria were determined by relaxometry. Eight–eight Gd(III) – rac‐L1 and Gd(III) – ent‐L1 samples were prepared, with pH values in the range of 1.7–3.0 at equilibrium ([Gd^3+] = [L] = 0.002 M). The samples were kept at 25 °C for 6 weeks to reach equilibrium. For the calculation of the stability constants of the [Gd(rac‐L1)]^3− and [Gd(ent‐L1)]^3− complexes, besides the protonation constants of ligands and the Gd(III) complexes, the stability constants of the di‐protonated [^*Gd(H2 rac‐L1)]^− and [^*Gd(H2 […])]^− out‐of‐cage complexes (considered as intermediates) was also used as fixed values, which were calculated from the pH‐potentiometric titration curve of the Gd(III) – rac‐L1 and Gd(III) – ent‐L1 system obtained in the pH range of 1.7–7.0.
(§2) For the pH measurements and titrations, the Metrohm 888 Titrando titration workstation Metrohm‐6.0234.110 combined electrode was used. Equilibrium measurements were carried out at a constant ionic strength (0.15 M NaCl) in 6 mL samples at 25 °C. The solutions were stirred, and N2 was bubbled through them. The titrations were made in the pH range 1.7–12.0. KH‐Phthalate (pH 4.005) and borax (pH 9.177) buffers were used to calibrate the pH meter. For the calculation of [H^+] from the measured pH values, the method proposed by Irving et al. was used as follows.^[ [46] ^] A 0.01M HCl solution was titrated with standardized NaOH solution at 0.15 M NaCl ionic strength. The differences (A) between the measured (pHread) and calculated pH (‐log[H^+]) values were used to obtain the equilibrium H^+ concentration from the pH values measured in the titration experiments (A = 0.02). For the equilibrium calculations, the stoichiometric water ionic product (pK w) was also needed in order to calculate [OH^−] values under basic conditions. The VNaOH – pHread data pairs of the HCl – NaOH titration obtained in the pH range 10.5–12.0 were used to calculate the pK w value (pK w = 13.83).
The stability constant of Gd(III)‐complexes with rac‐L2 and ent‐L2 ligands were determined by the measurement of the proton relaxation rates (r 1) studying the competition reaction of rac‐L2 and ent‐L2 ligands with AAZTA for Gd(III) ion at pH = 4.0 in 0.15 M NaCl solution. In these experiments, the concentration of Gd^3+, rac‐L2, and ent‐L2 ligands was 2.0 mM, while that of the AAZTA was varied between 1.0 and 6.0 mM (5 × 1.5 mL samples). The pH was adjusted to pH 4.0 by stepwise addition of concentrated NaOH or HCl solutions. The samples were kept at 70 °C for a month and then at 25°C for two months in order to attain the equilibrium (the time needed to reach the equilibria was determined by ^1H‐NMR relaxometry). ^1H‐NMR relaxometric measurement of Gd(III) – rac‐L2 – AAZTA and Gd(III) – ent‐L2 – AAZTA systems were performed with a Bruker Avance III 400 (9.4 T) equipped with BB inverse z gradient probe (5 mm). […]

Data set [2] can be described thus: Stability and protonation constants of Ca(II)-complexes (pH-potentiometry). Conditions: 0.15 M NaCl, 25 °C. Format: physicochemical. The method, then: as §1, §2
The stability and protonation constants of Ca(II)-, Zn(II)-, Cu(II)- and Gd(III)-complexes of rac-L1, ent-L1, rac-L2 and ent-L2, defined by Equations (S2) and (S3), were investigated by pH-potentiometry, spectrophotometry and ^1H NMR relaxometry at 25 °C in 0.15 M NaCl solution.
where i=0, 1, 2,…5. The KML and KMHiL values characterizing the formation of Ca(II)-, Zn(II)-, Cu(II)- and Gd(III)-complexes with rac-L1, ent-L1, rac-L2 and ent-L2 ligands have been calculated from the pH-potentiometric titration data obtained at 1:1 metal to ligand concentration ratios. In calculating the equilibrium constants, the best fitting of the mL NaOH – pH data has been obtained by assuming the formation of ML, MHL, MH2L, MH3L, MH4L, MH5L and MLH-1 species. The formation of the deprotonated [GdLH-1]^- complexes with rac-L2 and ent-L2 ligands takes place at pH>9.0, as indicated by the base consumption in the titration curves. This deprotonation of the Gd(III)-complexes occurs on the inner-sphere water molecule.

Take `O=C(CCC(C(=O)[O-])N1CCN(C(CCC(=O)NCC(O)CO)C(=O)[O-])Cc2cccc(n2)CN(C(CCC(=O)NCC(O)CO)C(=O)[O-])CC1)NCC(O)CO.[Gd+3]` (stereo not drawn) [[Gd(ent‐L2)]]: the “conditional stability higher than that of the racemic counterparts” value in data set [1] is 0.6 – 1.5 logK unit.

Take `O=C([O-])CCC(C(=O)[O-])N1CCN(C(CCC(=O)[O-])C(=O)[O-])Cc2cccc(n2)CN(C(CCC(=O)[O-])C(=O)[O-])CC1.[Gd+3]` (racemic) [[Gd(ent‐L1)]^3−]: the “conditional stability higher than that of the racemic counterparts” value in data set [1] is 0.6 – 1.5 logK unit.

Take `O=C(O)CCC(C(=O)O)N1CCN(C(CCC(=O)O)C(=O)O)Cc2cccc(n2)CN(C(CCC(=O)O)C(=O)O)CC1` (stereo not drawn) [ent‐L1]: in data set [1] (0.15 M NaCl, 25 °C), the “logK GdL” value is recorded as 20.17 (9), the logKGdH2L is 4.52 (1), the logKGdH3L is 4.15 (2) and the logKGdHL was 5.28 (1). For the same compound, the “*logKGd(H2L)” value in data set [1] (0.15 M NaCl, 25 °C) is on record as 4.00 (3). In data set [1] (0.15 M NaCl), the “logK^c GdL” value amounted to 16.85 and the pGd came to 17.80. In data set [1], the “logK^cGdL and pGd higher than that of the parent [Gd(PCTA)]” value (from here on “logK^cGdL and pGd higher than that”) is 0.6 – 1.2 logK unit; the “stability constant of Gd(III)-complex higher than that of the racemic complex” value was 1.5 logK unit. Besides, in data set [2], the “logK CaL” value is on record as 11.03 (1), the logKCaH2L was 5.01 (2), the logKCaH3L was 4.74 (2) and the logKCaH4L is 4.24 (3). The logKCaHL in data set [2] is reported as 5.59 (2).

For the compound `O=C(CCC(C(=O)O)N1CCN(C(CCC(=O)NCC(O)CO)C(=O)O)Cc2cccc(n2)CN(C(CCC(=O)NCC(O)CO)C(=O)O)CC1)NCC(O)CO` (stereo not drawn) [ent‐L2], in data set [1] (0.15 M NaCl, 25 °C), the “logK GdL” value is reported as 20.36 (3) and the logKGdLH-1 is 11.66 (1). Also, in data set [1] (0.15 M NaCl), the “logK^c GdL” value is 17.31 and the pGd is listed as 18.27. In data set [1], the “logK^cGdL and pGd higher than that” value was 0.6 – 1.2 logK unit; the “stability constant of Gd(III)-complex higher than that of the racemic complex” value was found to be 1.5 logK unit. In data set [2], the “logK CaL” value is 10.26 (1) and the logKCaHL is reported as 4.16 (2).

As to `O=C(O)CCC(C(=O)O)N1CCN(C(CCC(=O)O)C(=O)O)Cc2cccc(n2)CN(C(CCC(=O)O)C(=O)O)CC1` (racemic) [rac‐L1, 2,2’,2’’-[3,6,9,15-tetraazabicyclo[9.3.1]pentadeca-1(15),11,13-triene-3,6,9-triyl]tripentanedioic acid], in data set [1] (0.15 M NaCl, 25 °C), the “logK GdL” value was 18.65(5), the logKGdH2L is recorded as 4.43 (3), the logKGdH3L is reported as 4.35 (3) and the logKGdH4L is listed as 2.25 (3). Further, in data set [1] (0.15 M NaCl, 25 °C), the logKGdHL is recorded as 5.32 (2) and the “*logKGd(H2L)” value was 3.58 (2). In addition, in data set [1] (0.15 M NaCl), the “logK^c GdL” value is 15.34 and the pGd is on record as 16.33. In data set [2], the “logK CaL” value was 10.10 (1), the logKCaH2L is listed as 5.34 (2), the logKCaH3L is 4.83 (4) and the logKCaH4L is reported as 4.45 (2). In addition, the logKCaHL in data set [2] is on record as 5.72 (1).

In the case of `O=C(CCC(C(=O)O)N1CCN(C(CCC(=O)NCC(O)CO)C(=O)O)Cc2cccc(n2)CN(C(CCC(=O)NCC(O)CO)C(=O)O)CC1)NCC(O)CO` (racemic) [rac‐L2], in data set [1] (0.15 M NaCl, 25 °C), the “logK GdL” value is 18.96 (7) and the logKGdLH-1 is listed as 11.15 (4). In addition, in data set [1] (0.15 M NaCl), the “logK^c GdL” value is 16.76 and the pGd worked out at 17.70. The “logK^cGdL and pGd higher than that” value in data set [1] is reported as 0.6 – 1.2 logK unit. Further, in data set [2], the “logK CaL” value is given as 7.84 (2) and the logKCaHL is 4.86 (9).
